Literature values in US20190250088A1, “Methods and Apparatus for Predicting and Confirming Drug-Induced Thrombocytopenia Through Particle Detection with Dynamic Light Scattering” (LightIntegra Technology Inc., priority 2018, published 2019).

Details: patients recently exposed to heparin; background statement

Substance	HIT occurs in patients receiving the drug (incidence of heparin-induced thrombocytopenia)
low molecular weight heparin [low molecular weight heparin (LMWH)]	< 1%
unfractionated heparin [unfractionated heparin (UFH)]	up to 5%
